In ChEMBL document CHEMBL3091347, “Comparison of Multiple Linear Regressions and Neural Networks based QSAR models for the design of new antitubercular compounds” (Eur J Med Chem, 2013):
Values after ≈ are worked out from the molar mass of the structure shown.

Tests used:
[1] = test system: Mycobacterium tuberculosis; experiment: Antitubercular activity against Mycobacterium tuberculosis H37Rv; assay type: functional; details: for MIC: Mycobacterium tuberculosis, H37Rv
[2] = Lipophilicity, log P of the compound; details: octanol/water
[3] = test system: Mycobacterium tuberculosis; experiment: Antitubercular activity against Mycobacterium tuberculosis; assay type: functional; details: for MIC: Mycobacterium tuberculosis

N/C(COc1ccc(Cl)cc1)=N\NC(=O)c1ccncc1
log(1/MIC) [1]: -0.494 | MIC [1]: 3.12 µg/mL (≈ 10.2 µM) | logP ([2]; logP): 1.34

Cc1ccccc1OC/C(N)=N/NC(=O)c1ccncc1
log(1/MIC) [1]: -1.097 | MIC [1]: 12.5 µg/mL (≈ 44 µM) | logP ([2]; logP): 1.27

C/C(=N\NC(=O)c1ccncc1)c1cccc(CN2CCN(c3ccc(F)cc3)CC2)c1O
log(1/MIC) [1]: 0.3963 | MIC [1]: 0.4 µg/mL (≈ 0.894 µM) | logP ([2]; logP): 3.68

CCCCCCCCC(=O)NNC(=O)c1ccncc1
log(1/MIC) [1]: 1.602 | MIC [1]: 0.03 µg/mL (≈ 0.108 µM) | logP ([2]; logP): 2.22

Cc1cccc(OC/C(N)=N/NC(=O)c2ccncc2)c1
log(1/MIC) [1]: -0.494 | MIC [1]: 3.12 µg/mL (≈ 11 µM) | logP ([2]; logP): 1.27

Cc1ccc(OC/C(N)=N/NC(=O)c2ccncc2)cc1
log(1/MIC) [1]: -0.796 | MIC [1]: 6.25 µg/mL (≈ 22 µM) | logP ([2]; logP): 1.27

N/C(COc1cccc(Cl)c1)=N\NC(=O)c1ccncc1
log(1/MIC) [1]: -0.494 | MIC [1]: 3.12 µg/mL (≈ 10.2 µM) | logP ([2]; logP): 1.34

C/C(=N\NC(=O)c1ccncc1)c1cccc(CN(C)C)c1O
log(1/MIC) [1]: 0.09006 | MIC [1]: 0.81 µg/mL (≈ 2.59 µM) | logP ([2]; logP): 1.19

CCN(CC)Cc1cccc(/C(C)=N/NC(=O)c2ccncc2)c1O
log(1/MIC) [1]: 0.09061 | MIC [1]: 0.81 µg/mL (≈ 2.38 µM) | logP ([2]; logP): 2.09

CCCCN(CCCC)Cc1cccc(/C(C)=N/NC(=O)c2ccncc2)c1O
log(1/MIC) [1]: -0.2078 | MIC [1]: 1.61 µg/mL (≈ 4.06 µM) | logP ([2]; logP): 4.05

C/C(=N\NC(=O)c1ccncc1)c1cccc(CN2CCCC2)c1O
log(1/MIC) [1]: -0.2108 | MIC [1]: 1.62 µg/mL (≈ 4.79 µM) | logP ([2]; logP): 1.99

C/C(=N\NC(=O)c1ccncc1)c1cccc(CN2CCOCC2)c1O
log(1/MIC) [1]: 0.09122 | MIC [1]: 0.81 µg/mL (≈ 2.29 µM) | logP ([2]; logP): 1.61

C/C(=N\NC(=O)c1ccncc1)c1cccc(CN(c2ccccc2)c2ccccc2)c1O
log(1/MIC) [1]: -0.2064 | MIC [1]: 1.61 µg/mL (≈ 3.69 µM) | logP ([2]; logP): 4.12

C/C(=N\NC(=O)c1ccncc1)c1cccc(CN2CCNCC2)c1O
log(1/MIC) [1]: 0.6866 | MIC [1]: 0.21 µg/mL (≈ 0.594 µM) | logP ([2]; logP): 1.05

C/C(=N\NC(=O)c1ccncc1)c1cccc(CN(Cc2ccccc2)Cc2ccccc2)c1O
log(1/MIC) [1]: -0.2063 | MIC [1]: 1.61 µg/mL (≈ 3.47 µM) | logP ([2]; logP): 4.33

C/C(=N\NC(=O)c1ccncc1)c1cccc(CN2CCN(c3cc4c(cc3F)c(=O)c(C(=O)O)cn4C3CC3)CC2)c1O
log(1/MIC) [1]: 0.09913 | MIC [1]: 0.8 µg/mL (≈ 1.34 µM) | logP ([2]; logP): 4.2

CCn1cc(C(=O)O)c(=O)c2cc(F)c(N3CCN(Cc4cccc(/C(C)=N/NC(=O)c5ccncc5)c4O)C(C)C3)c(F)c21 (configuration not stated)
log(1/MIC) [1]: 0.09873 | MIC [1]: 0.8 µg/mL (≈ 1.29 µM) | logP ([2]; logP): 4.81

C/C(=N\NC(=O)c1ccncc1)c1cccc(CN2CCN(c3ccccn3)CC2)c1O
log(1/MIC) [1]: 0.3979 | MIC [1]: 0.4 µg/mL (≈ 0.929 µM) | logP ([2]; logP): 2.59

C/C(=N\NC(=O)c1ccncc1)c1cccc(CN2CCN(Cc3ccccc3)CC2)c1O
log(1/MIC) [1]: 0.3951 | MIC [1]: 0.4 µg/mL (≈ 0.902 µM) | logP ([2]; logP): 3.83

N/N=C/C(O)C(O)C(O)C(CC(=O)c1ccncc1)C(=O)c1ccncc1 (configuration not stated)
log(1/MIC) [3]: 1.4 | MIC [3]: 0.04 µg/mL (≈ 0.107 µM) | logP [2]: -5.16

Cc1cc(C(=O)NN)ccn1
log(1/MIC) [1]: 0.1045 | MIC [1]: 0.79 µg/mL (≈ 5.23 µM) | logP ([2]; logP): -1.67

CCc1cc(C(=O)NN)ccn1
log(1/MIC) [1]: -0.5423 | MIC [1]: 3.49 µg/mL (≈ 21.1 µM) | logP ([2]; logP): -1.14

CCCc1cc(C(=O)NN)ccn1
log(1/MIC) [1]: -0.9953 | MIC [1]: 9.89 µg/mL (≈ 55.2 µM) | logP ([2]; logP): -0.615

CC(C)Cc1cc(C(=O)NN)ccn1
log(1/MIC) [3]: -1.94 | MIC [3]: 87 µg/mL (≈ 450 µM) | logP ([2]; logP): -0.216

COc1cc(C(=O)NN)ccn1
log(1/MIC) [1]: -1.408 | MIC [1]: 25.6 µg/mL (≈ 153 µM) | logP ([2]; logP): -2.03

CCOc1cc(C(=O)NN)ccn1
log(1/MIC) [3]: -1.91 | MIC [3]: 81.5 µg/mL (≈ 450 µM) | logP ([2]; logP): -1.5

NNC(=O)c1ccnc(N)c1
log(1/MIC) [1]: -0.3436 | MIC [1]: 2.21 µg/mL (≈ 14.5 µM) | logP ([2]; logP): -2.84

CC(=O)Nc1cc(C(=O)NN)ccn1
log(1/MIC) [3]: -2.62 | MIC [3]: 418 µg/mL (≈ 2150 µM) | logP ([2]; logP): -2.93

CC(=O)NCc1cc(C(=O)NN)ccn1
log(1/MIC) [1]: -1.704 | MIC [1]: 50.6 µg/mL (≈ 243 µM) | logP ([2]; logP): -3.75

CCN(CC)c1cc(C(=O)NN)ccn1
log(1/MIC) [3]: -2.17 | MIC [3]: 149 µg/mL (≈ 717 µM) | logP ([2]; logP): -0.546

NNC(=O)c1ccnc(I)c1
log(1/MIC) [1]: -1.825 | MIC [1]: 66.8 µg/mL (≈ 254 µM) | logP ([2]; logP): -1.2

NNC(=O)c1ccnc(Cc2ccccc2)c1
log(1/MIC) [1]: -0.942 | MIC [1]: 8.75 µg/mL (≈ 38.5 µM) | logP ([2]; logP): -0.105

C=Cc1cc(C(=O)NN)ccn1
log(1/MIC) [1]: -0.7567 | MIC [1]: 5.71 µg/mL (≈ 35 µM) | logP ([2]; logP): -1.69

CC(O)(NNC(=O)c1ccncc1)C(=O)O (configuration not stated)
log(1/MIC) [3]: 1.22 | MIC [3]: 0.06 µg/mL (≈ 0.266 µM) | logP ([2]; logP): -2.78

O=C(NNC(O)C(Cl)(Cl)Cl)c1ccncc1 (configuration not stated)
log(1/MIC) [3]: 1.4 | MIC [3]: 0.04 µg/mL (≈ 0.141 µM) | logP [2]: -1.22

CC(C)(C#N)NNC(=O)c1ccncc1
log(1/MIC) [3]: 1.22 | MIC [3]: 0.06 µg/mL (≈ 0.294 µM) | logP ([2]; logP): -0.976

CCC(CC)=NNC(=O)c1ccncc1
log(1/MIC) [3]: 1.7 | MIC [3]: 0.02 µg/mL (≈ 0.0974 µM) | logP ([2]; logP): -0.469

CCCCC/C(C)=N/NC(=O)c1ccncc1
log(1/MIC) [3]: 1.52 | MIC [3]: 0.03 µg/mL (≈ 0.129 µM) | logP ([2]; logP): 0.589

CCN(CC)c1ccc(/C=N/NC(=O)c2ccncc2)cc1
log(1/MIC) [3]: 0.22 | MIC [3]: 0.6 µg/mL (≈ 2.02 µM) | logP ([2]; logP): 2.53

CCN(CC)CCN(C)c1ccc(/C=N/NC(=O)c2ccncc2)cc1
log(1/MIC) [3]: 1.1 | MIC [3]: 0.08 µg/mL (≈ 0.226 µM) | logP ([2]; logP): 2.43

N/N=C/C(CC(=O)c1ccncc1)C(=O)c1ccncc1 (configuration not stated)
log(1/MIC) [3]: 0.82 | MIC [3]: 0.15 µg/mL (≈ 0.531 µM) | logP ([2]; logP): -2.83

CC(C)/C=N\NC(=O)c1ccncc1
log(1/MIC) [3]: 1 | MIC [3]: 0.1 µg/mL (≈ 0.523 µM) | logP ([2]; logP): -0.998

CC(C)CNNC(=O)c1ccncc1
log(1/MIC) [3]: 1 | MIC [3]: 0.1 µg/mL (≈ 0.517 µM) | logP ([2]; logP): -0.719

CCC(C)NNC(=O)c1ccncc1 (configuration not stated)
log(1/MIC) [3]: 0.4 | MIC [3]: 0.4 µg/mL (≈ 2.07 µM) | logP ([2]; logP): -0.719

C/C=N/NC(=O)c1ccncc1
log(1/MIC) [3]: 1.4 | MIC [3]: 0.04 µg/mL (≈ 0.245 µM) | logP ([2]; logP): -1.93

CC(C)=NNC(=O)c1ccncc1
log(1/MIC) [3]: 1.7 | MIC [3]: 0.02 µg/mL (≈ 0.113 µM) | logP ([2]; logP): -1.53

O=C(NN=C1CCCCC1)c1ccncc1
log(1/MIC) [3]: 2.22 | MIC [3]: 0.01 µg/mL (≈ 0.046 µM) | logP ([2]; logP): -0.334

NNC(=O)c1ccccc1 [BENZOIC ACID HYDRAZIDE]
log(1/MIC) [3]: 0.22 | MIC [3]: 0.6 µg/mL (≈ 4.41 µM) | logP [2]: -0.845

CC(C)NNC(=O)c1ccncc1 [IPRONIAZID]
log(1/MIC) [3]: 0.4 | MIC [3]: 0.4 µg/mL (≈ 2.23 µM) | logP [2]: -1.248
